Consider four compounds from ChEMBL document CHEMBL3217546, “The synthesis and receptor binding affinities of DDD-016, a novel, potential, atypical antipsychotic” (Medchemcomm, 2012).

Active and inactive are the calls of the source. No cut-off for these calls is given here.

Among the targets are D(1B) dopamine receptor (Homo sapiens, UniProt P21918); D(1A) dopamine receptor (Homo sapiens, UniProt P21728); D(3) dopamine receptor (Homo sapiens, UniProt P35462).
Series [1] concerns the target 5-hydroxytryptamine receptor 5A (Homo sapiens, UniProt P47898).
Description: Binding affinity to serotonin 5-HT5A receptor (unknown origin) by PDSP assay
The target in series [2] is 5-hydroxytryptamine receptor 3A (Homo sapiens, UniProt P46098).
Description: Binding affinity to serotonin 5-HT3 receptor (unknown origin) by PDSP assay
For series [3], the target named is Alpha-1B adrenergic receptor (Homo sapiens, UniProt P35368).
Description: Binding affinity to adrenergic alpha1B receptor (unknown origin) by PDSP assay
The target of series [4] is 5-hydroxytryptamine receptor 1E (Homo sapiens, UniProt P28566).
Description: Binding affinity to serotonin 5-HT1E receptor (unknown origin) by PDSP assay
The target of series [5] is 5-hydroxytryptamine receptor 1B (Homo sapiens, UniProt P28222).
Description: Binding affinity to serotonin 5-HT1B receptor (unknown origin) by PDSP assay
Series [6] has as its target 5-hydroxytryptamine receptor 2C (Homo sapiens, UniProt P28335).
Description: Binding affinity to serotonin 5-HT2C receptor (unknown origin) by PDSP assay
Series [7] addresses 5-hydroxytryptamine receptor 6 (Homo sapiens, UniProt P50406).
Description: Binding affinity to serotonin 5-HT6 receptor (unknown origin) by PDSP assay
Series [8] has as its system Rattus norvegicus. The series is described as follows: Toxicity in po dosed rat assessed as change in renal parameter after 2 weeks relative to control. Format: organism-based. The following applies: in vivo, 336 h.
Series [9] has as its target Alpha-2C adrenergic receptor (Homo sapiens, UniProt P18825).
Description: Binding affinity to adrenergic alpha2C receptor (unknown origin) by PDSP assay
Series [10] has as its target Muscarinic acetylcholine receptor M3 (Homo sapiens, UniProt P20309).
Description: Binding affinity to M3 receptor (unknown origin) by PDSP assay
Series [11] deals with T1, 5-hydroxytryptamine receptor 2A (Homo sapiens, UniProt P28223).
Description: Binding affinity to serotonin 5-HT2A receptor (unknown origin) by PDSP assay
Series [12] has as its target 5-hydroxytryptamine receptor 7 (Homo sapiens, UniProt P34969).
Description: Binding affinity to serotonin 5-HT7 receptor (unknown origin) by PDSP assay
The target in series [13] is Muscarinic acetylcholine receptor M5 (Homo sapiens, UniProt P08912).
Description: Binding affinity to M5 receptor (unknown origin) by PDSP assay
A further series deals with Histamine H2 receptor (Homo sapiens, UniProt P25021). The series is described as follows: Binding affinity to H2 histamine receptor (unknown origin) by PDSP assay.
For series [14], the target named is Muscarinic acetylcholine receptor M1 (Homo sapiens, UniProt P11229).
Description: Binding affinity to M1 receptor (unknown origin) by PDSP assay
Series [15] deals with T1, 5-hydroxytryptamine receptor 2A. As to the kind of experiment: Agonist activity at 5-HT2A receptor (unknown origin) relative to serotonin. As to conditions: concentration not given here.
The target of series [16] is 5-hydroxytryptamine receptor 2B (Homo sapiens, UniProt P41595). The series is described as follows: Binding affinity to serotonin 5-HT2B receptor (unknown origin) by PDSP assay.
For series [17], the target named is 5-hydroxytryptamine receptor 4 (Homo sapiens, UniProt Q13639). The series is described as follows: Binding affinity to serotonin 5-HT4 receptor (unknown origin) by PDSP assay.
For series [18], the system named is Rattus norvegicus. As to the kind of experiment: Toxicity in po dosed rat assessed as elevation in liver enzyme level after 2 weeks relative to control. In kind it is organism-based. As to conditions: in vivo, 336 h.
The subject of series [19] is Rattus norvegicus. The series is described as follows: Toxicity in po dosed rat assessed as abnormal metabolic changes after 2 weeks relative to control. In kind it is organism-based. As to conditions: in vivo, 336 h.
Series [20] has as its target Muscarinic acetylcholine receptor M4 (Homo sapiens, UniProt P08173).
Description: Binding affinity to M4 receptor (unknown origin) by PDSP assay
Series [21] concerns the target Alpha-2A adrenergic receptor (Homo sapiens, UniProt P08913).
Description: Binding affinity to adrenergic alpha2A receptor (unknown origin) by PDSP assay
For series [22], the target named is Alpha-1A adrenergic receptor (Homo sapiens, UniProt P35348).
Description: Binding affinity to adrenergic alpha1A receptor (unknown origin) by PDSP assay
For series [23], the target named is T2, D(2) dopamine receptor (Homo sapiens, UniProt P14416).
Description: Binding affinity to dopamine D2 receptor (unknown origin) by PDSP assay
The subject of series [24] is Rattus norvegicus. As to the kind of experiment: Toxicity in po dosed rat assessed as weight gain after 2 weeks relative to control. As to conditions: in vivo, 336 h. In kind it is organism-based.
Series [25] deals with 5-hydroxytryptamine receptor 1A (Homo sapiens, UniProt P08908).
Description: Binding affinity to serotonin 5-HT1A receptor (unknown origin) by PDSP assay
Series [26] concerns the target T2, D(2) dopamine receptor. As to the kind of experiment: Agonist activity at dopamine D2 receptor (unknown origin) relative to serotonin. As to conditions: concentration not given here.
For series [27], the target named is T1, 5-hydroxytryptamine receptor 2A. As to the kind of experiment: Antagonist activity at 5-HT2A receptor (unknown origin) relative to ketanserin. The following applies: concentration not given here.
Series [28] has as its target Muscarinic acetylcholine receptor M2 (Homo sapiens, UniProt P08172).
Description: Binding affinity to M2 receptor (unknown origin) by PDSP assay
For series [29], the system named is Rattus norvegicus. As to the kind of experiment: Inhibition of pre-pulse in ip dosed rat. In kind it is functional, organism-based.
Series [30] deals with 5-hydroxytryptamine receptor 1D (Homo sapiens, UniProt P28221).
Description: Binding affinity to serotonin 5-HT1D receptor (unknown origin) by PDSP assay
The target of series [31] is Alpha-1D adrenergic receptor (Homo sapiens, UniProt P25100). The series is described as follows: Binding affinity to adrenergic alpha1D receptor (unknown origin) by PDSP assay.
Series [32] concerns the target T2, D(2) dopamine receptor. The series is described as follows: Antagonist activity at dopamine D2 receptor (unknown origin) relative to ketanserin. The following applies: concentration not given here.

Chain of 5-hydroxytryptamine receptor 5A (P47898 whole entry): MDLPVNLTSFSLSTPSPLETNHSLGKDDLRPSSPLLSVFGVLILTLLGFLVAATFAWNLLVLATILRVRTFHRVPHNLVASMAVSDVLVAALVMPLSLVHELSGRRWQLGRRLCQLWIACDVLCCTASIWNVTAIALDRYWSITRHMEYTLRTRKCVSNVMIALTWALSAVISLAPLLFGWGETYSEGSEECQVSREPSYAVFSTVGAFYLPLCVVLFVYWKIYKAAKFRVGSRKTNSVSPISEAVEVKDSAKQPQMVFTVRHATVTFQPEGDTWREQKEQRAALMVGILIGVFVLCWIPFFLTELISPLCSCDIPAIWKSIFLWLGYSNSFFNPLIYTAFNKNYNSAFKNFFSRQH
T2 sequence (P14416 whole entry): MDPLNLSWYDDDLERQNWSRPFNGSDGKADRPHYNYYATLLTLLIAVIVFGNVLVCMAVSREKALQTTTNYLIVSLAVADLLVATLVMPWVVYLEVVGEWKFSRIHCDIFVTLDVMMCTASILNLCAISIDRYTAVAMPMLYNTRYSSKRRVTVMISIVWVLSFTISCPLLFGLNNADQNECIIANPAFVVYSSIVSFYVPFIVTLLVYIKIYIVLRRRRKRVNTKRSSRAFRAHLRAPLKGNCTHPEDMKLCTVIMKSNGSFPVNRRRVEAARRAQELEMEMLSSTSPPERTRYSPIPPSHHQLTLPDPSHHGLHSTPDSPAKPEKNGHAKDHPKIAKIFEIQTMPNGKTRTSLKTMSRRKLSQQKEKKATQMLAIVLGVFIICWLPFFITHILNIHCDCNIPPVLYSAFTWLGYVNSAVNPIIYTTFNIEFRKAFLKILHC
T1 sequence (P28223 whole entry): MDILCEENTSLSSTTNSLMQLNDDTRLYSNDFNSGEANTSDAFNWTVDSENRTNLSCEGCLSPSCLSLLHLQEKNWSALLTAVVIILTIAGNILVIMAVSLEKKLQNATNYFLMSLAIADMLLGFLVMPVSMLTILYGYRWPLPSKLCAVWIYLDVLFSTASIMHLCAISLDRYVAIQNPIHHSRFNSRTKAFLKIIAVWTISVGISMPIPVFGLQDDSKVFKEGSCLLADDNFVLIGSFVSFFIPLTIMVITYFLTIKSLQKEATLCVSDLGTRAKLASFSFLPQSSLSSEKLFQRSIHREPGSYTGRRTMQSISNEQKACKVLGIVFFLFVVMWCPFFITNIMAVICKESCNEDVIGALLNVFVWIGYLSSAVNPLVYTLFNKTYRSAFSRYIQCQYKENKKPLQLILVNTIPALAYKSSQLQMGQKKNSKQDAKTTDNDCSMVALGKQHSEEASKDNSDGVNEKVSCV
Chain of Alpha-1B adrenergic receptor (P35368 whole entry): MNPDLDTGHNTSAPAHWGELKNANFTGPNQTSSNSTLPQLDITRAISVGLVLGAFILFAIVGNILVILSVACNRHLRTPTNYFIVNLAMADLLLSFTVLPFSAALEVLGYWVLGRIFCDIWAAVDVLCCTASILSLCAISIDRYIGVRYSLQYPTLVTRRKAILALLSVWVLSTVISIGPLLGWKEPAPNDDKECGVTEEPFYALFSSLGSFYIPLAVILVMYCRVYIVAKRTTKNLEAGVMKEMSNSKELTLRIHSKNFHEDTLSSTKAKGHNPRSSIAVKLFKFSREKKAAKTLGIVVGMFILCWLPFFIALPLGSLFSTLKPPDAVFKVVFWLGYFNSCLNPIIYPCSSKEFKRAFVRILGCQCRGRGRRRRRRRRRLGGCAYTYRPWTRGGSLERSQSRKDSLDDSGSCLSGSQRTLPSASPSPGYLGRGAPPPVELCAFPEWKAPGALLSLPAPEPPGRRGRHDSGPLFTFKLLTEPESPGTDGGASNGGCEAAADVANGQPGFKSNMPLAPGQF
Chain of 5-hydroxytryptamine receptor 3A (P46098 whole entry): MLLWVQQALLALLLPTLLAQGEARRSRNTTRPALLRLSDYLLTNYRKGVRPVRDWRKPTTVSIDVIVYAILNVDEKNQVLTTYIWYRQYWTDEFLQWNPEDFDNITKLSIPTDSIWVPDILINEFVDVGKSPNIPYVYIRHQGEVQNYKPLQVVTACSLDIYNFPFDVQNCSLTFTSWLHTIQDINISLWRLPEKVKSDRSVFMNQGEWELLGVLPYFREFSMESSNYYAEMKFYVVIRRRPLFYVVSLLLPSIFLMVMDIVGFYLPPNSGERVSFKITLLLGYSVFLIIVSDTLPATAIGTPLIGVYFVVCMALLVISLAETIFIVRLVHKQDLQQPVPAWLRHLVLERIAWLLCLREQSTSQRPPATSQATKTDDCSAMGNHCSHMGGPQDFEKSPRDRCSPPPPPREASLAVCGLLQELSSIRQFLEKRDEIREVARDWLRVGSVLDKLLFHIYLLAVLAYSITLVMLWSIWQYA
Chain of D(1B) dopamine receptor (P21918 whole entry): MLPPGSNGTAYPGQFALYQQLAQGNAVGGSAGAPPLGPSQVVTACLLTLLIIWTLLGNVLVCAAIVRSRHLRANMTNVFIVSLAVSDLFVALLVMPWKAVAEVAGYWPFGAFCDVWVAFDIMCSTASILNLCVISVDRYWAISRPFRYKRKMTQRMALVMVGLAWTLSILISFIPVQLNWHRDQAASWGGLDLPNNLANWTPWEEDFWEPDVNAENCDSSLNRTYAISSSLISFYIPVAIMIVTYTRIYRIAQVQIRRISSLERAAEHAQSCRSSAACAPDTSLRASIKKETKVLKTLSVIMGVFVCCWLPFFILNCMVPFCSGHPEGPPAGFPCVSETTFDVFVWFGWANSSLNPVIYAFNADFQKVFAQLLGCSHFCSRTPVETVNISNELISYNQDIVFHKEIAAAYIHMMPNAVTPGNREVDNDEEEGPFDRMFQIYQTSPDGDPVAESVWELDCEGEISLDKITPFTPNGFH
Chain of 5-hydroxytryptamine receptor 1B (P28222 whole entry): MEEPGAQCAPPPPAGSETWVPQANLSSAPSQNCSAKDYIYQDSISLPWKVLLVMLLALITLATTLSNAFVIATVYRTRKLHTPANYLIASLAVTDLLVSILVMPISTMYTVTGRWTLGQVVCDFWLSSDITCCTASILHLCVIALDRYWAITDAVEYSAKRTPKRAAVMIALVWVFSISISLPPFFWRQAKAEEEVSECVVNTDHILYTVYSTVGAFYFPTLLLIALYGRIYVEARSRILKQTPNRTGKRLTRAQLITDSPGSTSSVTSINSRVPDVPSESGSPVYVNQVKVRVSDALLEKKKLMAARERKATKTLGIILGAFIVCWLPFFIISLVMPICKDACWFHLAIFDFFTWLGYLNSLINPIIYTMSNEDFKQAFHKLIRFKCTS
Chain of 5-hydroxytryptamine receptor 1E (P28566 whole entry): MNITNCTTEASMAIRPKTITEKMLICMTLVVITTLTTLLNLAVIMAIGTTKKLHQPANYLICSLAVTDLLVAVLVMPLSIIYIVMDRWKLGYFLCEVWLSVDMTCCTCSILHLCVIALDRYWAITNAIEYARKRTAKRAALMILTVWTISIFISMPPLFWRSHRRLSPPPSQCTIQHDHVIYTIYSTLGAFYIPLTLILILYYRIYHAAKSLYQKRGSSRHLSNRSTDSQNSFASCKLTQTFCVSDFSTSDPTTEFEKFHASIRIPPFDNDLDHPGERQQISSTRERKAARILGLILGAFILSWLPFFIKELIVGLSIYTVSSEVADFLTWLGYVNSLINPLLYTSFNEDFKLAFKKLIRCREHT
Chain of Muscarinic acetylcholine receptor M2 (P08172 whole entry): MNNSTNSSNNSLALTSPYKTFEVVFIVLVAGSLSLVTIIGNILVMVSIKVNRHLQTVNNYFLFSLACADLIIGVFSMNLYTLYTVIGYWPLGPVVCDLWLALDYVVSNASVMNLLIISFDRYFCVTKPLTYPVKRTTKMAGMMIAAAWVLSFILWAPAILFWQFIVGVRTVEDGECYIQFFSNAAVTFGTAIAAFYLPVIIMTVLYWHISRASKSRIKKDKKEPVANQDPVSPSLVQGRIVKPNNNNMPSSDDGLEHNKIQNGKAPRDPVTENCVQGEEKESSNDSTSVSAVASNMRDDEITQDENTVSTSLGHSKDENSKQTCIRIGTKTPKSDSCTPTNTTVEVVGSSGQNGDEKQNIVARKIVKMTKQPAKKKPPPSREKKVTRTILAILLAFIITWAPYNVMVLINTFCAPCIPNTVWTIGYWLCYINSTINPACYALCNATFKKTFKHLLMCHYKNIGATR
Chain of D(1A) dopamine receptor (P21728 whole entry): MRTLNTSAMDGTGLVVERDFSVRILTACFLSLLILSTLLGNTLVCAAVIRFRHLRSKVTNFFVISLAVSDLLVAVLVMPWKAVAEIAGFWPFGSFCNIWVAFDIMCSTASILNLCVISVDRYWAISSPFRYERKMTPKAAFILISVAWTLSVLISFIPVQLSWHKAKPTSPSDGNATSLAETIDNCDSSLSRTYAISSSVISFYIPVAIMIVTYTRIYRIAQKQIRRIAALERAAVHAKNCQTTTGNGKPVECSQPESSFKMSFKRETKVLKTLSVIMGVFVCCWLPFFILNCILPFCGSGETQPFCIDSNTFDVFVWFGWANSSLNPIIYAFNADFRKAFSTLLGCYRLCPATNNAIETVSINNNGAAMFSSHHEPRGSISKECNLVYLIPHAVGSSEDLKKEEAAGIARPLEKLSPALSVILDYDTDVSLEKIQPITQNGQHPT
Chain of Muscarinic acetylcholine receptor M4 (P08173 whole entry): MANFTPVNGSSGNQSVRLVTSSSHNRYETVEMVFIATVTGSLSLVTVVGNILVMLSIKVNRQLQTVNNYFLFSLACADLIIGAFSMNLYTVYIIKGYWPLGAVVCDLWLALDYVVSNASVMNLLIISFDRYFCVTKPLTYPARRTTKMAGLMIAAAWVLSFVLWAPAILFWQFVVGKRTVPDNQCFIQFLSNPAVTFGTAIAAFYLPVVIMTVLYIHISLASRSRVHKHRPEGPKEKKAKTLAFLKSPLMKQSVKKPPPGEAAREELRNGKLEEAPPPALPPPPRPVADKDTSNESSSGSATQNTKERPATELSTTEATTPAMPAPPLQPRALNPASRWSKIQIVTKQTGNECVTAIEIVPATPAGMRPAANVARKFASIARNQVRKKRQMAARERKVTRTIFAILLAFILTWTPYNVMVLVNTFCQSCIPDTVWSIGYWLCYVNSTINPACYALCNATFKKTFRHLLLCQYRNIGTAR
Description for D(1A) dopamine receptor: Binding affinity to dopamine D1 receptor (unknown origin) by PDSP assay
Description for D(3) dopamine receptor: Binding affinity to dopamine D3 receptor (unknown origin) by PDSP assay

Usually Ki stands for the equilibrium dissociation constant of an inhibitor or competing ligand from its target. A low value points to higher affinity. In series [1], `CN1CCN(C2=Nc3cc(Cl)ccc3Nc3ccccc32)CC1` [CLOZAPINE] registered a Ki above 1000 nM.

For `Cc1cc2c(s1)Nc1ccccc1N=C2N1CCN(C)CC1` [OLANZAPINE], the Ki at D(1B) dopamine receptor is 100 nM; in [1] it was above 1000 nM; in series [2] it was 1000 nM.

For the compound `OCCOCCN1CCN(C2=Nc3ccccc3Sc3ccccc32)CC1` [QUETIAPINE], the inhibition constant Ki in series [3] is 100 nM; at D(1B) dopamine receptor, above 1000 nM; in series [1] it was above 1000 nM; in series [4], above 1000 nM; in [5] it was above 1000 nM.

One may read the inhibition as the change of the read-out against control, counted positive when it falls. As for `CN1CCC2C(C1)c1cccc3c1N2c1ccccc1CS3` (stereo not drawn), the inhibition constant (Ki) was 7.94 nM in series [6]; 15.8 nM in series [7]; 31.6 nM in series [9]; above 1000 nM in series [10]; 2 nM in series [11]; above 1000 nM in [3]. Moreover, the Ki in series [12] was 79.4 nM; in series [13], 794 nM; at Histamine H2 receptor, 79.4 nM; in [14], above 1000 nM; in series [16], 5.01 nM; in series [17] it was above 1000 nM. In addition, the Ki is above 1000 nM in [20]; 25.1 nM at D(1A) dopamine receptor; 31.6 nM on D(3) dopamine receptor; 63.1 nM in [21]; 501 nM in series [22]; 126 nM at D(2) dopamine receptor [23]. Moreover, the Ki in [25] was 39.8 nM; in series [4], 2510 nM; in series [2], 631 nM; in series [28], above 1000 nM; in [30] it was 63.1 nM; in series [31] it was 794 nM. In series [5], this compound gave a Ki of 316 nM. Also, the Activity entry in the series with Rattus norvegicus [8], in the series with Rattus norvegicus [18], in the series on Rattus norvegicus [19] and in the series with Rattus norvegicus [24] was “Non-toxic” in each case. Besides, the inhibition in series [15] was found to be 4%; on D(2) dopamine receptor [26], 0%; in series [27] it was 101%; on D(2) dopamine receptor [32], 95%. For the same compound, the inhibition result in the series with Rattus norvegicus [29] was “Active”.
